Patent US20240181081A1, “Compositions and Methods for Treatment of Myotonic Dystrophy Type 1 with CRISPR/SACAS9” (Vertex Pharmaceuticals Incorporated, priority 2021, published 2024)

Experiments:
[1] = tested on: CTG repeat expansion in the 3′ UTR of human DMPK gene; assay: DOUBLE-cut screening: CTG repeat excision by loss-of-signal ddPCR in primary DM1 patient myoblasts; type: cell-based; settings: sgRNA pair RNP, mean of upstream and downstream ddPCR assays; for % of CTG repeat excision efficiency by ddPCR (DNA-PKi): 3 μM Compound 6 for 48 hrs; for % of CTG repeat excision efficiency by ddPCR (Vehicle): DMSO 48 hrs
Experimental: (§1) RNPs were assembled with recombinant SaCas9 protein (Aldevron) and chemically modified sgRNAs (Synthego) at a ratio of 1:3 (protein:sgRNA). For SINGLE-cut screening, RNP complexes were assembled with 30 pmol of SaCas9 and 90 pmol of sgRNA in P5 Primary Cell Nucleofector Solution (Lonza). After incubation at room temperature for 20 minutes, 10 μL of RNP complex was mixed with two hundred thousand primary myoblasts resuspended in 10 μL of P5 Nucleofector Solution. For DOUBLE-cut screening, RNP complexes were first assembled for individual sgRNAs with 20 pmol of SaCas9 protein and 60 pmol of sgRNAs in 5 μL of P5 Nucleofector Solution. After incubation at room temperature for 20 minutes, the two RNP complexes (one for upstream sgRNA and one for downstream sgRNA) were mixed at 1:1 ratio and then further mixed with two hundred thousand primary myoblasts resuspended in 10 μL of P5 Nucleofector Solution.
(§2) The Nucleofector 96-well Shuttle System (Lonza) was used to deliver the SaCa9/sgRNA RNPs into primary DM1 patient myoblasts using the nucleofection program CM138. Following nucleofection, myoblasts from each well of nucleofection shuttle were split into six wells of the 96-well cell culture plate (Greiner, 655090) coated with matrigel. The first three wells were treated with DMSO for 48 hrs before changing to fresh myoblast growth medium, and the other three wells were treated with 3 μM of DNA-PKi Compound 6 for 48 hrs before changing to fresh myoblast growth medium. 72 hrs post nucleofection, two wells of DMSO-treated myoblasts and two wells of DNA-PKi-treated myoblasts from each nucleofection were harvested for genomic DNA extraction using the Kingfisher Flex purification system (Thermal Fisher), whereas one well of DMSO-treated myoblasts and one well of DNA-PKi-treated myoblasts were stained for RNA foci by FISH staining.
The primers and probes of ddPCR were designed using the online primer design software Primer3Plus (http://www.bioinformatics.nl/cgi-bin/primer3plus/primer3plus.cgi). The two Target primers/probe sets were used to detect CTG repeat excision, and the Reference primers/probe set was used to amplify a region located in Exon 1 of human DMPK gene and it served as a reference control for the Target sets. The 24 μL of ddPCR reaction consisted of 12 μL of Supermix for Probes (no dUTP) (Bio-Rad Laboratories), 1 μL of Reference primers mix (21.6 μM), 1 μL of Reference probe (6 μM), 1 μL of Target primers mix (21.6 μM), 1 μL of Target probe (6 μM), and 8 μL of sample genomic DNA. Droplets were generated using probe oil with the QX200 Droplet Generator (Bio-Rad Laboratories). Droplets were transferred to a 96-well PCR plate, sealed and cycled in a C1000 deep well Thermocycler (Bio-Rad Laboratories) under the following cycling protocol: 1 cycle at 95° C. for 10 min; 40 cycles of 94° C. for 30 sec, and 58° C. for 1 min; 1 cycle at 98° C. for 10 min (for enzyme inactivation). The cycled plate was then transferred and read in the FAM and HEX channels using the Bio-Rad QX200 Droplet Reader (Bio-Rad Laboratories). ddPCR analysis was performed with the Bio-Rad QuantaSoft Pro Software.
Next, DOUBLE-cut screening was performed to assess the efficiency of paired sgRNAs-induced CTG repeat excision and RNA foci reduction. 90 SaCas9 sgRNA pairs formed by one upstream sgRNA and one downstream sgRNA were assembled with recombinant SaCas9 protein into RNP complex and nucleofected into primary DM1 patient myoblasts. Nucleofected myoblasts were treated with either DMSO (vehicle) or 3 μM of Compound 6 (DNA-PKi) for 48 hrs. 72 hrs post nucleofection, myoblasts were subjected to either genomic DNA isolation or RNA foci staining.
One upstream and one downstream loss-of-signal droplet digital PCR (ddPCR) assays were used to determine the efficiency of CTG repeat excision. ddPCR signals would be abolished upon excision of the CTG repeat expansion in these loss-of-signal ddPCR assays. […]

[2] = tested on: CUG RNA foci in primary DM1 patient myoblasts; assay: DOUBLE-cut screening: FISH staining of RNA foci in primary DM1 patient myoblasts; type: cell-based, human; settings: sgRNA pair RNP, 72 hrs post nucleofection; for % of CUG foci free nuclei (DNA-PKi): 3 μM Compound 6 for 48 hrs; for % of CUG foci free nuclei (Vehicle): DMSO 48 hrs
Experimental: as §1, §2
Primary myoblasts were fixed for 15 min with 4% paraformaldehyde (PFA) and washed five times with 1×PBS for 10 min each at room temperature. Before staining, cells were permeabilized with 0.5% triton X-100 in 1×PBS for 5 min at room temperature, and then washed with 30% formamide and 2× saline-sodium citrate (SSC) mixture for 10 min at room temperature. Cells were then stained with 1 ng/μL of Cy3-PNA(CAG) 5 probe (PNA Bio, F5001) diluted in 30% formamide, 2×SSC, 2 μg/mL BSA, 66 μg/mL yeast tRNA, and 2 mM vanadyl complex for 15 min at 80° C. Following probe staining, cells were then washed in 30% formamide and 2×SSC mixture for 30 min at 42° C., then washed in 30% formamide and 2×SSC mixture for 30 min at 37° C., and then washed in 1×SSC solution for 10 min at room temperature, and finally washed in 1×PBS for 10 min at room temperature. Cells were next stained with anti-MBNL1 antibody (Santa Cruz, 3A4) diluted in 1% bovine serum albumin (BSA) for overnight at 4° C., and washed twice with 1×PBS for 10 min each at room temperature. Cells were then incubated with the secondary antibody goat […] Alexa 647 (Thermo Fisher, A32728) diluted in 1% BSA for 1 hr at room temperature, and washed twice with 1×PBS for 10 min each at room temperature. Next, cells were stained with Hoechst solution (Thermo Fisher, H3569) at 0.1 mg/ml for 5 min, and washed once with 1×PBS for 5 min. PBS was aspirated and fresh 100 μl of fresh PBS was added to each well. High-throughput acquisition of images was completed with the ImageXpress Micro Confocal High-Content Imaging System (Molecular Devices). RNA foci quantifications were accomplished with a customized analysis module of the MetaXpress program (Molecular Devices).
Next, DOUBLE-cut screening was performed to assess the efficiency of paired sgRNAs-induced CTG repeat excision and RNA foci reduction. 90 SaCas9 sgRNA pairs formed by one upstream sgRNA and one downstream sgRNA were assembled with recombinant SaCas9 protein into RNP complex and nucleofected into primary DM1 patient myoblasts. […]

Substance | % of CTG repeat excision efficiency by ddPCR (DNA-PKi) [1] [%] | % of CTG repeat excision efficiency by ddPCR (Vehicle) [1] [%] | % of CUG foci free nuclei (DNA-PKi) [2] [%] | % of CUG foci free nuclei (Vehicle) [2] [%]
SaU2 + SaD17: SaCas9 sgRNA pair, SEQ ID NOs: 2 and 25 (guide 1 ACTCAGTCTTCCAACGGGGCCC; guide 2 TTTATTCGCGAGGGTCGGGGGT; listed as DNA, chemistry not fully specified) | 52.34 | 31.11 | 78.68 | 55.20
SaU2 + SaD18: SaCas9 sgRNA pair, SEQ ID NOs: 2 and 26 (guide 1 ACTCAGTCTTCCAACGGGGCCC; guide 2 GGGCCTTTTATTCGCGAGGGTC; listed as DNA, chemistry not fully specified) | 48.16 | 19.28 | 69.93 | 32.87
SaU2 + SaD19: SaCas9 sgRNA pair, SEQ ID NOs: 2 and 27 (guide 1 ACTCAGTCTTCCAACGGGGCCC; guide 2 AGGACCCCCACCCCCGACCCTC; listed as DNA, chemistry not fully specified) | 56.62 | 49.08 | 80.94 | 62.27
SaU2 + SaD20: SaCas9 sgRNA pair, SEQ ID NOs: 2 and 28 (guide 1 ACTCAGTCTTCCAACGGGGCCC; guide 2 AGATGGAGGGCCTTTTATTCGC; listed as DNA, chemistry not fully specified) | 61.08 | 36.35 | 82.08 | 74.86
SaU3 + SaD2: SaCas9 sgRNA pair, SEQ ID NOs: 3 and 10 (guide 1 ACTCCGGGGCCCCGTTGGAAGA; guide 2 TCGGCCAGGCTGAGGCCCTGAC; listed as DNA, chemistry not fully specified) | 54.49 | 50.85 | 82.73 | 77.08
SaU3 + SaD3: SaCas9 sgRNA pair, SEQ ID NOs: 3 and 11 (guide 1 ACTCCGGGGCCCCGTTGGAAGA; guide 2 CAACGATAGGTGGGGGTGCGTG; listed as DNA, chemistry not fully specified) | 57.46 | 36.25 | 78.72 | 51.28
SaU3 + SaD4: SaCas9 sgRNA pair, SEQ ID NOs: 3 and 12 (guide 1 ACTCCGGGGCCCCGTTGGAAGA; guide 2 ACTTTGCGAACCAACGATAGGT; listed as DNA, chemistry not fully specified) | 64.28 | 47.22 | 87.42 | 83.67
SaU3 + SaD5: SaCas9 sgRNA pair SaU3 and SaD5; table prints SEQ ID NOS: 2 and 13 (guide 1 ACTCCGGGGCCCCGTTGGAAGA; guide 2 GGGTTTGGCAAAAGCAAATTTC; listed as DNA, chemistry not fully specified) | 60.74 | 43.61 | 84.63 | 73.56
SaU3 + SaD6: SaCas9 sgRNA pair, SEQ ID NOs: 3 and 14 (guide 1 ACTCCGGGGCCCCGTTGGAAGA; guide 2 CTTTTGCCAAACCCGCTTTTTC; listed as DNA, chemistry not fully specified) | 50.32 | 24.10 | 64.84 | 31.37
SaU3 + SaD7: SaCas9 sgRNA pair, SEQ ID NOs: 3 and 15 (guide 1 ACTCCGGGGCCCCGTTGGAAGA; guide 2 GGGGCGCGGGATCCCCGAAAAA; listed as DNA, chemistry not fully specified) | 58.50 | 35.98 | 76.54 | 49.49
SaU3 + SaD10: SaCas9 sgRNA pair, SEQ ID NOs: 3 and 18 (guide 1 ACTCCGGGGCCCCGTTGGAAGA; guide 2 TTGGGGGTCCTGTAGCCTGTCA; listed as DNA, chemistry not fully specified) | 69.50 | 44.56 | 86.88 | 75.19
SaU3 + SaD11: SaCas9 sgRNA pair, SEQ ID NOs: 3 and 19 (guide 1 ACTCCGGGGCCCCGTTGGAAGA; guide 2 CAAAACGTGGATTGGGGTTGTT; listed as DNA, chemistry not fully specified) | 58.33 | 32.84 | 73.87 | 50.28
SaU3 + SaD12: SaCas9 sgRNA pair, SEQ ID NOs: 3 and 20 (guide 1 ACTCCGGGGCCCCGTTGGAAGA; guide 2 TCAGTGCATCCAAAACGTGGAT; listed as DNA, chemistry not fully specified) | 59.96 | 38.05 | 83.21 | 74.46
